Patent publication US8394929B2, “Nogo receptor-mediated blockade of axonal growth” (Yale University, priority 2000, dated 2013)
Like-named read-outs stand apart in the source and are kept apart here.

B1: NgR-ecto: secreted fragment of amino acid residues 1-348 of the murine NgR, in HEK293T conditioned medium (protein)
chain: CPGACVCYNEPKVTTSCPQQGLQAVPTGIPASSQRIFLHGNRISHVPAASFQSCRNLTILWLHSNALARIDAAAFTGLTLLEQLDLSDNAQLHVVDPTTFHGLGHLHTLHLDRCGLRELGPGLFRGLAALQYLYLQDNNLQALPDNTFRDLGNLTHLFLHGNRIPSVPEHAFRGLHSLDRLLLHQNHVARVHPHAFRDLGRLMTLYLFANNLSMLPAEVLMPLRSLQYLRLNDNPWVCDCRARPLWAWLQKFRGSSSEVPCNLPQRLADRDLKRLAASDLEGCAVASGPFRPIQTSQLTDEELLSLPKCCQPDAADKASVLE
modifications: left off: small tags and cut ends
notes: secreted fragment of amino acid residues 1-348 of the murine NgR, in HEK293T conditioned medium

System: CNS myelin induced neurite outgrowth inhibition
Assay: Blockade of CNS myelin induced neurite outgrowth inhibition in chick DRG neurons
Format: cell-based
Method: To determine the antagonistic activity of Peptide 140 against CNS myelin, the above synthetic peptide was added approximately 10 min before application of CNS myelin. 30 min later, cultures were fixed and growth cone collapse was assessed following staining with rhodamine-phalloidin. For neurite outgrowth assays, plastic chamber slide were coated with 100 μg ml^−1 poly-L-lysine, washed, and dried. 3 μl drops of PBS containing CNS myelin were spotted and dried. Slides were then rinsed and coated with 10 μg ml fs24^−1 laminin before addition of dissociated E12 chick DRGs. Peptide 140, or the scrambled version of Peptide 140, was added at the time of cell plating. Cultures were grown for 5-7 h after which neurite outgrowth was assessed.
Although the role of the GPI anchor may be to regulate NgR cellular compartmentalization, another possible role for the GPI linkage is to provide a NgR cleavage site. Cleaving NgR could serve to affect hNogo-A (1055-1120) signaling by rendering a neuron insensitive to hNogo-A (1055-1120) and by releasing soluble NgR that could then act on adjacent cells to modulate hNogo-A (1055-1120) signaling. To determine if soluble mNgR modulates hNogo-A (1055-1120)-dependent inhibition, a soluble mNgR was generated by inserting a truncated cDNA encoding mNgR residues 1-348 in frame with a myc-His carboxy tag into pcDNA3.1. The resulting plasmid expressing mNgREcto was transfected into HEK293T cells, and conditioned media containing mNgREcto protein was collected. To test the effect of mNgREcto on Nogo signaling, E13 dissociated DRGs were plated in the presence of hNogo-A (1055-1120) or myelin. The inhibitors were presented in either soluble or substrate-bound forms. For neurite outgrowth assays on hNogo-A (1055-1120) or myelin substrates, Permanox chamber slides were coated with 100μ, fs24 g ml^−1 poly-L-Lysine, washed, and then 3-μl drops of phosphate-buffered saline (hereinafter “PBS”) containing 0, 10, 50, or 150 ng of GST-hNogo-A (1055-1120) or myelin were spotted and dried. GST-hNogo-A (1055-1120) and myelin were prepared as previously described (GrandPre et al., supra; Fournier et al., J. Cell Biol. 149:411-421, 2000). After three PBS washes, slides were coated with 10 μg ml^−1 laminin. Laminin was then aspirated and dissociated E13 chick DRG neurons were added. After 6-8 hr of outgrowth, cultures were fixed and neurite outgrowth lengths were assessed. For blockade experiments with NgREcto, spots were incubated with HEK293T cell conditioned media or NgREcto-transfected-HEK293T cell conditioned media following for 1 hr following the laminin coating step and before the addition of dissociated neurons. […] Thus, soluble fragments of NgR might serve physiologically or pharmacologically to reduce GST-hNogo-A (1055-1120) inhibition of axonal regeneration.

Row | Molecule | blockade of CNS myelin induced neurite outgrowth inhibition (in words) | blockade of CNS myelin induced neurite outgrowth inhibition (in words) (listed as 2-41 fragment) | concentration at which maximal activity is obtained (bound CNS myelin) | neurite outgrowth on a 20 ng spot of myelin (as compared with control outgrowth) (following treatment with Peptide 140, E12 chick DRG) | blockade of CNS myelin induced neurite outgrowth inhibition (in words) (listed as NgR ectodomain protein) | blockade of CNS myelin induced neurite outgrowth inhibition (in words) (listed as NgREcto) | blockade of CNS myelin induced neurite outgrowth inhibition (in words) (listed as mNgR ectodomain protein)
1 | Pep2-41: 2-41 fragment of the 66 amino acid region of Nogo, acetylated and amidated at the termini (Ac-RIYKGVIQAIQKSDEGHPFRAYLESEVAISEELVQKYSNS-NH2) | can reverse the inhibition of neurite outgrowth | blocks |  |  |  |  | 
2 | Peptide 140: synthetic peptide of amino acids #1055-1094 of the human NogoA protein, acetylated and amidated at the termini (Ac-RIYKGVIQAIQKSDEGHPFRAYLESEVAISEELVQKYSNS-NH2; UniProt Q9NQC3 1055-1094, looked up, fragment) | partial neutralization |  | approximately 250 nM | 65% |  |  | 
3 | B1 | blocks the ability of CNS myelin to inhibit axonal outgrowth |  |  |  | blocked | partially reversed | blocked
